# Where “and” joins values, the source holds several entries; their conditions need not be identical. Identical values can stand only once. Like-named read-outs stand apart in the source and are kept apart here.
# System: human sebocytes
# Test: Sebum suppression: 14C-acetate incorporation in cultured human sebocytes
# Format: cell-based
# Conditions: for activity at 1 µM / activity at 10 µM / activity at 100 µM / activity at 0.1 µM: Homo sapiens
# Description: Compounds A through H were tested for their potential to suppress sebum expression, alone or in the presence of a retinoid.
# Secondary cultures of human sebocytes obtained from an adult […] were grown in 48-well tissue culture plates (Costar Corp.; Cambridge, Mass.) or 96-well tissue culture plates (Packard Co.; Meriden, Conn.) until confluent. Sebocyte growth medium consisted of Clonetics Keratinocyte Basal Medium (KBM) supplemented with 14 μg/ml bovine pituitary extract, 0.4 μg/ml hydrocortisone, 5 μg/ml insulin, 10 ng/ml epidermal growth factor, 1.2×10−10 M cholera toxin, 100 units/ml penicillin, and 100 μg/ml streptomycin. All cultures were incubated at 37° C. in the presence of 7.5% CO2. Medium was changed three times per week.
# On the day of experimentation, the growth medium was removed and the sebocytes washed three times with sterile Dulbecco's Modified Eagle Medium (DMEM; phenol red free). Fresh DMEM was added to each sample (duplicates, triplicates, or quadruplicates depending on the experiment) with 5 microliter of test agent solubilized in ethanol either alone or in the presence of one or 10 micromolar of retinol. Controls consisted of addition of ethanol alone, retinol alone, or phenol red, which has estrogen-like activity and is included as a positive control.
# Each plate was returned to the incubator for 20 hours followed by the addition of 14C-acetate buffer (5 mM final concentration, 56 mCi/mmol specific activity). Sebocytes were returned to the incubator for four hours after which each culture was rinsed three times with phosphate buffered saline to remove unbound label. Radioactive label remaining in the sebocytes was harvested and counted using a Beckman scintillation counter.
# [1] = 1 μM test compound + 1 μM Retinol, read-out: % of Control
# [2] = 1 μM test compound + 10 μM Retinol, read-out: % of Control
# [3] = 1 μM test compound alone, read-out: % of Control
# [4] = 10 μM test compound alone, read-out: % of Control
# [5] = 100 μM test compound + 1 μM Retinol, read-out: % of Control
# [6] = 100 μM test compound + 10 μM Retinol, read-out: % of Control
# [7] = 100 μM test compound alone, read-out: % of Control
# [8] = 1 μM test compound + 10 μM Retinol
# [9] = 0.1 μM test compound + 1 μM Retinol, read-out: % of Control
# [10] = 0.1 μM test compound + 10 μM Retinol, read-out: % of Control
# [11] = 0.1 μM test compound alone, 14C-acetate label remaining in sebocytes, 20 h + 4 h, read-out: % of Control
# [12] = 10 μM test compound + 1 μM Retinol, read-out: % of Control
# [13] = 10 μM test compound + 10 μM Retinol, read-out: % of Control
# [14] = 10 μM test compound + 10 μM Retinol
SMILES,activity at 1 µM [1],activity at 1 µM [2],activity at 1 µM [3],activity at 10 µM [4],activity at 100 µM [5],activity at 100 µM [6],activity at 100 µM [7],"% of Control (1 μM test compound alone, 1 µM)",activity at 10 µM [12],further results
CC(O)c1cccc(NC(=O)N2c3ccccc3CCc3ccccc32)c1 (stereo not shown) [Compound A],82.8%,93.2%,85.7%,91.3%,1%,0.6%,2.1%,–,–,–
O=C(Nc1ccc(OC(F)(F)F)cc1)N1c2ccccc2CCc2ccccc21 [Compound B],104%,65.7%,94.1%,89.4%,0.8%,0.6%,1.7%,–,–,–
O=C(Nc1ccc(O)cc1)N1c2ccccc2CCc2ccccc21 [Compound C],–,–,–,56.1%,–,–,–,66.4%,37.4%,"% of Control [8]: 48.5%; activity at 0.1 µM [9]: 95.1%; activity at 0.1 µM [10]: 84.6%; activity at 0.1 µM [11]: 103%; sebum suppressive activity when combined with retinol (in the presence of retinol / a retinoid, versus compound alone): improved activity"
CC1=C(Cl)CCC=C1NC(=O)N1c2ccccc2CCc2ccccc21 [Compound D],–,74.6%,77.6%,82.7%,1.1%,0.5%,1.8%,–,97.1%,% of Control (1 μM test compound + 1 μM Retinol): 96.9%; activity at 10 µM [13]: 76.8%
O=C(CC1c2ccccc2-c2ccccc21)N1CCC(O)(c2ccc(Cl)cc2)CC1 [Compound F],–,–,72.3%,–,–,–,–,90.2%,–,% of Control [14]: 27.0%; activity at 0.1 µM [9]: 92.8%; activity at 0.1 µM [10]: 83.6%; activity at 0.1 µM [11]: 95.8%; activity at 10 µM [13]: 16.7%
O=C(CC1c2ccccc2-c2ccccc21)N1CCC(O)(c2ccccc2)CC1 [Compound G],–,–,–,67.7%,–,0.6%,2%,70.7%,–,–
CCCN(CCO)C(=O)CC1c2ccccc2-c2ccccc21 [Compound H],86.4%,–,–,–,67.6%,27.2%,79.8%,74.8% and 102.7%,76.6%,"% of Control [8]: 72.8% and 99.9%; % of Control [14]: 80.2% and 100.4%; % of Control (10 μM test compound alone, 10 µM): 74.6% and 111.7%; % of Control (100 μM test compound + 10 μM Retinol): 44.4%; % of Control (100 μM test compound alone, 100 µM): 73.6%"
"O=S1(=O)OC(c2ccc(O)cc2)(c2ccc(O)cc2)c2ccccc21 [Phenol Red, phenol red, reference compound]",–,–,–,–,–,–,–,–,–,% of Control (28 μM Phenol Red (positive control)): 95.3% and 74.7%; % of Control (280 μM Phenol Red (positive control)): 15.9%
"CC1=C(/C=C/C(C)=C/C=C/C(C)=C/CO)C(C)(C)CCC1 [Retinol, retinol, reference compound]",–,–,–,–,–,–,–,–,–,% of Control (1 μM Retinol alone (control)): 98.1%; % of Control (10 μM Retinol alone (control)): 105.8%; activity at 1 µM (1 μM Retinol alone (control)): 96.5%

# From patent US20020028804A1, “Cosmetic compositions containing substituted iminodibenzyl or fluorene derivatives” (Unilever Home & Personal Care USA, Division of Conopco, Inc., priority 2000, published 2002)
